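Method: 48-hour compound exposure of cells in 96-well plates, five concentrations, linear interpolation of endpoints. Abbreviation: GI50, concentration required for 50% inhibition of growth. At the TGI there is no net growth.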
What was measured:
Assay in all cases: inhibition of tumour cell growth, NCI panel, 48 h
UACC-257 melanoma = system: UACC-257 melanoma
M14 melanoma = system: M14 melanoma
U251 CNS = system: U251 CNS
SK-MEL-5 melanoma = system: SK-MEL-5 melanoma
IGROV1 ovarian = system: IGROV1 ovarian
786-0 renal = system: 786-0 renal
NCI/ADR-RES ovarian = system: NCI/ADR-RES ovarian
T-47D breast = system: T-47D breast
HS 578T breast = system: HS 578T breast
CCRF-CEM leukemia = system: CCRF-CEM leukemia
HCT-116 colon = system: HCT-116 colon
HCT-15 colon = system: HCT-15 colon
UACC-62 melanoma = system: UACC-62 melanoma
HOP-92 NSCLC = system: HOP-92 NSCLC
ACHN renal = system: ACHN renal
SNB-75 CNS = system: SNB-75 CNS
MDA-MB-231 breast = system: MDA-MB-231 breast
NCI-H522 lung = system: NCI-H522 lung
RPMI-8226 leukemia = system: RPMI-8226 leukemia
HCC-2998 colon = system: HCC-2998 colon
MOLT-4 leukemia = system: MOLT-4 leukemia
MCF7 breast = system: MCF7 breast
EKVX NSCLC = system: EKVX NSCLC
TK-10 renal = system: TK-10 renal
A549 NSCLC = system: A549 NSCLC
OVCAR-8 ovarian = system: OVCAR-8 ovarian
NCI-H226 lung = system: NCI-H226 lung
SK-MEL-28 melanoma = system: SK-MEL-28 melanoma
MALME-3M melanoma = system: MALME-3M melanoma
SK-OV-3 ovarian = system: SK-OV-3 ovarian

`CC1(C)CC[C@]2(C(=O)O)CC[C@]3(C)C(=CCC4[C@@]5(C)C[C@@H](O)[C@@H]6OC(c7ccccc7F)OC[C@@]6(C)C5CC[C@]43C)C2C1` (some centres undefined) was tested. Which GI50 (UACC-257 melanoma) did it give?
The GI50 was 4.68 µM.

What about the TGI (UACC-257 melanoma) of the same compound?
Its TGI is 18.2 µM.

What about the GI50 (M14 melanoma) of the same compound?
Its GI50 is 6.64 µM.

And the TGI (M14 melanoma)?
The TGI was 20.6 µM.

What about the GI50 (U251 CNS) of the same compound?
The GI50 was 2.63 µM.

What about the TGI (U251 CNS) of the same compound?
The TGI was 12.9 µM.

What about the GI50 (SK-MEL-5 melanoma) of the same compound?
Its GI50 is 3.39 µM.

What about the TGI (SK-MEL-5 melanoma) of the same compound?
Its TGI is 12.7 µM.

And the GI50 (IGROV1 ovarian)?
Its GI50 is 5.54 µM.

What about the TGI (IGROV1 ovarian) of the same compound?
The TGI was 18.1 µM.

And the GI50 (786-0 renal)?
The GI50 was 4.4 µM.

What about the TGI (786-0 renal) of the same compound?
The TGI was 16 µM.

What about the GI50 (NCI/ADR-RES ovarian) of the same compound?
Its GI50 is 3.11 µM.

What about the TGI (NCI/ADR-RES ovarian) of the same compound?
Its TGI is 14.5 µM.

What about the GI50 (T-47D breast) of the same compound?
The GI50 was 6.64 µM.

And the TGI (T-47D breast)?
The TGI was 24.7 µM.

And the GI50 (HS 578T breast)?
Its GI50 is 3.5 µM.

And the TGI (HS 578T breast)?
Its TGI is 16.2 µM.

What about the GI50 (CCRF-CEM leukemia) of the same compound?
The GI50 was 2.53 µM.

And the TGI (CCRF-CEM leukemia)?
The TGI was 12.6 µM.

And the GI50 (HCT-116 colon)?
Its GI50 is 2.75 µM.

And the TGI (HCT-116 colon)?
Its TGI is 11.7 µM.

And the GI50 (HCT-15 colon)?
Its GI50 is 2.14 µM.

What about the TGI (HCT-15 colon) of the same compound?
Its TGI is 10.9 µM.

And the GI50 (UACC-62 melanoma)?
Its GI50 is 5.02 µM.

What about the TGI (UACC-62 melanoma) of the same compound?
The TGI was 18 µM.

And the GI50 (HOP-92 NSCLC)?
Its GI50 is 2.65 µM.

What about the TGI (HOP-92 NSCLC) of the same compound?
Its TGI is 11.9 µM.

What about the GI50 (ACHN renal) of the same compound?
Its GI50 is 2.83 µM.

What about the TGI (ACHN renal) of the same compound?
Its TGI is 12.3 µM.

And the GI50 (SNB-75 CNS)?
Its GI50 is 2.77 µM.

What about the TGI (SNB-75 CNS) of the same compound?
The TGI was 15 µM.

What about the GI50 (MDA-MB-231 breast) of the same compound?
Its GI50 is 9.03 µM.

And the TGI (MDA-MB-231 breast)?
Its TGI is 21.3 µM.

And the GI50 (NCI-H522 lung)?
The GI50 was 3.79 µM.

And the TGI (NCI-H522 lung)?
The TGI was 16.8 µM.

What about the GI50 (RPMI-8226 leukemia) of the same compound?
The GI50 was 2.09 µM.

What about the TGI (RPMI-8226 leukemia) of the same compound?
Its TGI is 16.1 µM.

What about the GI50 (HCC-2998 colon) of the same compound?
The GI50 was 3.49 µM.

What about the TGI (HCC-2998 colon) of the same compound?
Its TGI is 14.1 µM.

And the GI50 (MOLT-4 leukemia)?
The GI50 was 2.09 µM.

And the TGI (MOLT-4 leukemia)?
The TGI was 12 µM.

What about the GI50 (MCF7 breast) of the same compound?
Its GI50 is 3.42 µM.

And the TGI (MCF7 breast)?
The TGI was 14.6 µM.

And the GI50 (EKVX NSCLC)?
Its GI50 is 3.16 µM.

What about the TGI (EKVX NSCLC) of the same compound?
Its TGI is 14.5 µM.

And the GI50 (TK-10 renal)?
Its GI50 is 6.03 µM.

And the TGI (TK-10 renal)?
Its TGI is 19.8 µM.

And the GI50 (A549 NSCLC)?
Its GI50 is 1.62 µM.

And the TGI (A549 NSCLC)?
Its TGI is 12.3 µM.

What about the GI50 (OVCAR-8 ovarian) of the same compound?
Its GI50 is 3.41 µM.

What about the TGI (OVCAR-8 ovarian) of the same compound?
The TGI was 15.6 µM.

What about the GI50 (NCI-H226 lung) of the same compound?
Its GI50 is 3.3 µM.

What about the TGI (NCI-H226 lung) of the same compound?
Its TGI is 15.1 µM.

And the GI50 (SK-MEL-28 melanoma)?
Its GI50 is 5.96 µM.

What about the TGI (SK-MEL-28 melanoma) of the same compound?
The TGI was 18.4 µM.

And the GI50 (MALME-3M melanoma)?
The GI50 was 5.08 µM.

And the TGI (MALME-3M melanoma)?
Its TGI is 17.9 µM.

And the GI50 (SK-OV-3 ovarian)?
The GI50 was 4.51 µM.
